Patent publication US4900672A, “Method for preservation of nitrile hydration activity” (Nitto Kagaku Kogyo Kabushiki Kaisha, priority 1986, dated 1990)

Columns and labels:
[1] = biological target: T1, nitrile hydratase (Pseudomonas chlororaphis, UniProt P27763+P27764); experiment: Preservation of nitrile hydration activity of polyacrylamide gel-immobilized cells left standing; type: cell-based, Pseudomonas chlororaphis B23 (FERM BP-187); conditions: Table 7
T1 sequence (P27764 1-200): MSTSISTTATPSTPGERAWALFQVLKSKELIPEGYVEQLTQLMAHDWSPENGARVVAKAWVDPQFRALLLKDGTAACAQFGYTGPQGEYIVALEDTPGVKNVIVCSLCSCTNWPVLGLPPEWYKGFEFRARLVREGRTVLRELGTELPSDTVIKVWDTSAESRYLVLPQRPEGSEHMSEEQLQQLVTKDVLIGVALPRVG
T1 sequence (P27763 1-220): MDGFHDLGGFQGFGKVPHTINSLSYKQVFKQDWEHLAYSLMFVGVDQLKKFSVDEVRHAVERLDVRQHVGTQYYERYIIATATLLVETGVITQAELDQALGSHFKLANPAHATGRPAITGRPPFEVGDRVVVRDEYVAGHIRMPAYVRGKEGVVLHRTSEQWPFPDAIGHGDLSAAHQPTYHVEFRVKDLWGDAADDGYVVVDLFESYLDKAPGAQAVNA
Procedure: 40 ml of washed cells (water content 75%) prepared as in Example 1, 4.5 g of acrylamide, 0.5 g of N,N'-methylenebisacrylamide, and 40 ml of M/20 phosphate buffer (containing 10 g/l of ammonium isobutyrate, pH 6.0) were mixed to form a homogeneous suspension. To this suspension were added 5 ml of a 5% aqueous solution of dimethylaminopropionitrile and 10 ml of a 1% aqueous solution of potassium persulfate, and the mixture was maintained at 10° C. for 30 minutes to cause polymerization. A mass of cell-containing gel obtained was crushed into small particles, which were thoroughly washed with M/20 phosphate buffer containing 5 g/l of ammonium isobutyrate, pH 7.0, whereby approximately 90 g of immobilized cells were obtained.
The washed, immobilized cells thus obtained were placed in the same buffer containing 5 g/l of isobutyric acid and left standing at 0° C. for 5 days. […]
The nitrile hydration activity levels of the gel samples were measured as follows before and after the respective immobilized cells were left standing.
1 g of immobilized gel was mixed with 5 g of acrylonitrile and 97 ml of M/20 phosphate buffer (pH 7.7), and the mixture was subjected to reaction at 0° C. for 20 minutes with stirring. The quantities of acrylamide in the respective reaction solutions were determined by gas chromatography.

[2] = biological target: T1, nitrile hydratase; experiment: Preservation of nitrile hydration activity of enzyme immobilized on DEAE-Cellulofine AM left standing; type: biochemical, Pseudomonas chlororaphis B23 (FERM BP-187); conditions: Table 8
Procedure: 25 ml each of a cell extract containing ammonium isobutyrate and a control cell extract containing no ammonium isobutyrate prepared as in Example 95 and comparison Example 11 were mixed with 15 g each of DEAE-Cellulofine AM (supplied by Seikagaku Kogyo Co., Ltd., Japan) equilibrated with M/20 phosphate buffer (pH 7.7). The mixture was stirred at 0° C. for 90 minutes to immobilize the enzymes.
The results are presented in Table 8 in which the protein levels in the immobilized enzymes were determined in accordance with the procedure of Lowry et al.

[3] = biological target: T1, nitrile hydratase; experiment: Preservation of nitrile hydration activity of cell extract (crude enzyme solution) left standing; type: biochemical, Pseudomonas chlororaphis B23 (FERM BP-187); conditions: Table 6
Procedure: The resultant cell suspension was pressed in a French press (fabricated by Ohtake Seisakusho, Japan) to crush cells under a pressure of 1,000 to 1,500 kg G and then subjected to centrifugation (12,000 rpm, 30 minutes) to remove uncrushed cells and insolubles such as cell walls, whereby a cell extract, i.e. a crude enzyme solution, was obtained.
For comparison purposes, a similar cell suspension (3.2×10^3 U/ml) which contained no ammonium isobutyrate was prepared and subjected to a French press treatment and centrifugation under similar conditions, whereby a control cell extract was obtained.

## CC(C)C(=O)O.N [Ammonium Isobutyrate, ammonium isobutyrate]
[1]; immobilized cells left standing at 0° C. for 5 days in buffer with 5 g/l stabilizer, control without: 0.52
  Quant. of AA produced (%) after cells were left standing: 0.93%
[1]; immobilized cells, 1 g gel + 5 g acrylonitrile, 0° C., 20 minutes, control without: 0.88
  Quant. of AA produced (%) before cells were left standing: 1.02%
[2]; enzyme immobilized on DEAE-Cellulofine AM, control without: 4.6
  Activity Before Being Left Standing: 19.4
[2]; immobilized enzyme, 3 days ice-cooled, control without: 1.7
  Activity After Being Left Standing: 18.4
[2]; immobilized enzyme, 3 days ice-cooled, control without: 37
  % Residual Activity: 95%
[3]; cell extract from suspension mixed 1:1 with buffer (pH 6.5) containing 10 g/l ammonium isobutyrate, control without: 2.7 × 10^3
  Activity Before Being Left Standing: 2.9 × 10^3 U/ml
[3]; cell extract, 3 days ice-cooled, control without: 1.0 × 10^3
  Activity After Being Left Standing: 2.8 × 10^3 U/ml
[3]; cell extract, 3 days ice-cooled, control without: 38
  % Residual Activity: 94%
